The IC50 is the concentration that gives 50% inhibition.

The target in the first series is MEK1 (Homo sapiens (Human), UniProt Q02750). Briefly: MEK1 inhibition assay (Z'-LYTE biochemical assay). Particulars: MAP2K1 (MEK1)/inactive MAPK1 (ERK2)/Ser/Thr 03 cascade, 10 point titration; read-out: IC50 against MEK1. On the procedure: MEK1 inhibitory activity of compounds were tested using the following procedure (protocol available at thermofisher.com/content/dam/LifeTech/migration/files/drug-discovery/pdfs.par.60256.file.dat/20130430%20ssbk%20customer%20protocol%20and%20assay%20conditions.pdf). The Z′-LYTE biochemical assay (ThermoFisher) employs a fluorescence-based, coupled-enzyme format and is based on the differential sensitivity of phosphorylated and non-phosphorylated peptides to proteolytic cleavage.
Chain of MEK1 (Q02750 whole entry): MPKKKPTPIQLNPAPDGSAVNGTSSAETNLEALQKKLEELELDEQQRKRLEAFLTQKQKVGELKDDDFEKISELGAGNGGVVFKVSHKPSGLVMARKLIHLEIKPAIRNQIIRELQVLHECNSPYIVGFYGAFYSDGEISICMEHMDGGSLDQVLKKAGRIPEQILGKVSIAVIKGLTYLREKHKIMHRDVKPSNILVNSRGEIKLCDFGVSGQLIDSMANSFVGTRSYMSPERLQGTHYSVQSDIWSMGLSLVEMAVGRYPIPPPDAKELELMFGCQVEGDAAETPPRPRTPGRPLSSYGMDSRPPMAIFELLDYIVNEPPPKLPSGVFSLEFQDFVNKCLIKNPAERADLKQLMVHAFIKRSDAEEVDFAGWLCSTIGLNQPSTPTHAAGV
Test compounds in 100% DMSO were screened in 1% DMSO (final) in the well. For 10 point titrations, 3-fold serial dilutions are conducted from the starting concentration of 30 μM.
After the 1 hour incubation, 5 μL of a 1:1024 dilution of Development Reagent A (available from Invitrogen, catalog no. PV3295) was added.
ATP solutions were diluted to a 4× working concentration in Kinase Buffer (50 mM HEPES pH 7.5, 0.01% BRIJ-35, 10 mM MgCl2, 1 mM EGTA). ATP Km apparent was previously determined using a Z′-LYTE assay. The Development Reagent was diluted in Development Buffer (available from Invitrogen, catalog no. P3127).
Assay Protocol: 2.5 μL of 4× test compound or 100 nL of 100× Test Compound plus 2.4 μL Kinase Buffer, 5 μL of the 2× Peptide/Kinase Mixture, 2.5 μL of 4×ATP Solution were added to the plates and placed on a shake plate for 30-seconds. The kinase reaction was allowed to proceed for 60-minute at room temperature, before 5 μL of Development Reagent Solution was added, and the mixture agitated for 30-seconds on a shake plate. The mixture was incubated for 60-minute at room temperature. Fluorescence was measured using a plate reader and the data were analyzed.
This control yielded 100% cleaved peptide in the Development Reaction. The 100% Phosphorylation Control, which consisted of a synthetically phosphorylated peptide of the same sequence as the peptide substrate, was designed to allow for the calculation of percent phosphorylation. This control yielded a very low percentage of cleaved peptide in the Development Reaction. The 0% Phosphorylation and 100% Phosphorylation Controls allow for the calculation of the percent phosphorylation achieved in a specific reaction well.
The minimum emission ratio in a screen was established by the 0% Inhibition Control, which contained active kinase. This control was designed to produce a 10-50% phosphorylated peptide in the Kinase Reaction. […]
A known inhibitor control standard curve, 10 point titration, was run for each individual kinase on the same plate as the kinase to ensure the kinase was inhibited within an expected IC50 range previously determined.
The following controls are prepared for each concentration of Test Compound assayed. […] The expected value for a non-fluorescence compound should be 0%. […]
The data in Table A was calculated. […]
For `O=c1c2c(Nc3ccc(I)cc3F)cncc2ccn1C[C@@H](O)CO` [Compound 1.001, (R)-2-(2,3-Dihydroxypropyl)-8-(2-fluoro-4-iodophenylamino)-2,6-naphthyridin-1(2H)-one], the IC50 was ≤ 150 nM.
The same measure, in the same setting: to `O=c1c2c(Nc3ccc(I)cc3F)cncc2ccn1C[C@H](O)CO` [Compound 1.002, (S)-2-(2,3-Dihydroxypropyl)-8-(2-fluoro-4-iodophenylamino)-2,6-naphthyridin-1(2H)-one] belongs ≤ 150 nM.
For `O=C(O)Cn1ccc2cncc(Nc3ccc(I)cc3F)c2c1=O` [Compound 1.004, 2-(8-(2-Fluoro-4-iodophenylamino)-1-oxo-2,6-naphthyridin-2(1H)-yl)acetic acid], the IC50 is > 1500 nM.
`COC(=O)Cn1ccc2cncc(Nc3ccc(I)cc3F)c2c1=O` [Compound 1.005, Methyl 2-(8-(2-fluoro-4-iodophenylamino)-1-oxo-2,6-naphthyridin-2(1H)-yl)acetate]: the IC50 was > 1500 nM.

Test system in the next series: not listed separately
As to the kind of experiment: Human liver S9 fraction stability assay. Particulars: pH 7.4, human liver S9, 1 μM test compound, 2 mg/mL protein, 1 mM NADPH, 37° C., read-out: Liver S9 fraction stability, t1/2. It counts as in vitro ADME. As for the experimental part: Compounds can be assessed for metabolic stability in human skin by assessing their rate of disappearance from human S9 skin fraction. Similarly, compounds can be assessed for metabolic stability in human liver by assessing their rate of disappearance from human S9 liver fraction. The protocol below is used to assess the difference between skin and hepatic metabolism.
The assay was carried out in 96-well microtiter plates at 37° C. Reaction mixtures (25 μL) contained a final concentration of 1 μM test compound, 2 mg/mL liver or skin protein, and 1 mM NADPH in buffer (100 mM potassium phosphate, pH 7.4 buffer with 1 mM EDTA, 3 mM MgCl2). At each of the time points (0, 15, 30, and 60 minutes), 150 μL of quench solution (100% acetonitrile with 0.1% formic acid) with internal standard was transferred to each well. Besides the zero minute controls, mixtures containing the same components except the NADPH were also prepared as the negative control. Verapamil or testosterone was included as a positive control to verify assay performance. Plates were sealed and centrifuged at 4° C. for 15 minutes at 4000 rpm. The supernatant was transferred to fresh plates for LC/MS/MS analysis.
All samples were analyzed on LC/MS/MS using an AB Sciex API 4000 instrument, coupled to a Shimadzu LC-20AD LC Pump system. Analytical samples were separated using a Waters Atlantis T3 dC18 reverse phase HPLC column (20 mm×2.1 mm) at a flow rate of 0.5 mL/min. The mobile phase consisted of 0.1% formic acid in water (solvent A) and 0.1% formic acid in 100% acetonitrile (solvent B).
The extent of metabolism was calculated as the disappearance of the test compound, compared to the 0-min control reaction incubations. Initial rates were calculated for the compound concentration and used to determine t1/2 values and subsequently, the intrinsic clearance, CLint=(0.693) (1/t1/2 (min)) (mL incubation/mg of S9 protein).
Table 4 lists t1/2 values for the above liver S9 stability assay. […]
Consider `O=c1c2c(Nc3ccc(I)cc3F)cncc2ccn1OCCO` [Compound 1.007, 8-(2-Fluoro-4-iodophenylamino)-2-(2-hydroxyethoxy)-2,6-naphthyridin-1(2H)-one], for which the half-life at 1 μM was in the range of 50 to 200 min.
On the same count and under the same terms, for `O=C1c2c(cncc2Nc2ccc(I)cc2F)CCN1OCCO` [Compound 1.010, 8-(2-Fluoro-4-iodophenylamino)-2-(2-hydroxyethoxy)-3,4-dihydro-2,6-naphthyridin-1(2H)-one] the value was 50 to 200 min; for `O=C1NCCc2cncc(Nc3ccc(I)cc3F)c21` [Compound 1.012, 8-((2-Fluoro-4-iodophenyl)amino)-3,4-dihydro-2,6-naphthyridin-1(2H)-one], ≤ 50 min.

Source of the values: patent US12378240B2, “Naphthyridinone-aniline compounds for treatment of dermal disorders” (NFlection Therapeutics, Inc., priority 2018, dated 2025).
